Experiments:
mCRPC patients = conditions: cited from earlier work
[1] = tested on: CWR-22Rv1 dominant-positive mutant HIF-1α cells; assay: In vivo growth of CWR-22Rv1 xenografts expressing dominant-positive mutant HIF-1α; set-up: species or system human; conditions: daily oral 10 mg/kg/d
Text: (§1) Prostate Cancer Models. The source, history, and characteristics of the human prostate cancer cell lines and PDXs used, as well as cell culture conditions for their in vitro maintenance and the in vivo protocol for xenograft growth in triple immune-deficient NSG (i.e. NOD.Cg-PrkdcScidIl2rgtmlWji/Szj), adult (>8 week old) male mice obtained from the Sidney Kimmel Comprehensive Cancer Center (SKCCC) Animal Core Facility are described previously (Isaacs 2013; Brennen et al. JCI Insight. 2021, 6(8):e146827; Zhu et al. Oncogene 2020, 39(45): 6935-6949). […] In vitro growth curves were determined as described (Isaacs 2013). In vivo growth response to oral daily TasQ (10 mg/kg/d) of TRAMP-C2 mouse prostate cancers was evaluated in C57BL/6J syngeneic wild type vs. NOX-2 vs. iNOS null male mice obtained from Jackson Laboratory (Bar Harbor, ME). Growth response to oral daily TasQ (10 mg/kg/d) of TRAMP-C2 and B6CaP mouse prostate cancers was also evaluated in S100A9 null C57BL′6J male mice obtained from Dmitry Gabrilovich (Wistar Institute). […] In vitro growth curves were determined as described (Isaacs 2013). Growth response to daily oral TasQ vs. ESATA-20 (both at 10 mg/kg/d) of Myc-CaP-CR mouse prostate cancer was evaluated in syngeneic FVB/NJ castrate male mice from Jackson Laboratory. […]

[2] = tested on: LNCaP and LNCaP/AHR-KD xenografts; assay: In vivo growth of LNCaP vs. LNCaP/AHR-KD xenografts in intact male hosts; set-up: species or system human; conditions: daily oral 10 mg/kg/d from day 53 post-inoculation
Text: as §1

[3] = tested on: AHR protein in LNCaP cells; assay: AHR translocation and downregulation in LNCaP cells (immunoblot); format: cell-based, human; conditions: TasQ 10 μM
Experimental: Western Blot Analysis. Analysis and quantification of protein expression via immunoblot was performed as previously described (Brennen 2021). All assays were performed with total cell lysates from an equal number (i.e., 100,000) of cells loaded per lane for accurate comparisons across cell lines and conditions.

## COc1cccc2c1c(O)c(C(=O)N(C)c1ccc(C(F)(F)F)cc1)c(=O)n2C [TasQ, Tasquinimod]
mCRPC patients; Phase III, oral 1 mg/day, mCRPC patients on ADT
  reduction of the risk of radiographic progression or death vs. placebo: 36%
mCRPC patients; Phase III, oral 1 mg/day
  overall survival: not enhanced
mCRPC patients; human, in vivo, 1 mg
  Cmax: ~500 nM
mCRPC patients; human, in vivo
  maximum tolerated dose (MTD) in humans: 1 mg
[1]
  growth inhibition of dominant-positive mutant HIF-1α tumors: < 25%
[2]
  growth response of LNCaP and LNCaP/AHR-KD xenografts: equally inhibited
[3]
  time to downregulation of the AHR protein: 2 to 4 h

— patent US20250059139A1, “COMPOUNDS FOR TREATMENT OF CANCER” (THE JOHNS HOPKINS UNIVERSITY, priority 2021, published 2025)
